US20100183684A1, “Oral vaccination” (Bio Life Science, priority 2002, published 2010)
Where a name gives a salt, the structure may show the parent alone.

Tested on: caviar extract
Assay: Antibody induction against orally fed caviar extract in mice, measured by ELISA
Type: in vivo
Conditions: Balb/c mice, gastric acid reducing agent with 2 mg caviar protein extract orally, fed simultaneously or with a time delay, not against daily diet; for induction of IgE antibodies against caviar extract: ELISA OD 405/450 nm
Method: Four groups (A to D) with five Balb/c mice each were treated in the following way: • Group A: Oral administration of Zantac (ULSAL®, active agent: 20 microg ranitidine per mouse, single dose per mouse one hour before feeding […] with antigen) and antigen (2 mg caviar protein extract per mouse), • Group B: Oral administration of a mixture of Ulcogant (active agent: 2 mg sucralfate per mouse) and antigen (2 mg caviar protein extract per mouse), • Group C: Comparative example with intraperitoneal administration of caviar antigen (2 mg) and aluminum hydroxide as an adjuvant, • Group D: Comparative example with oral administration of antigen (2 mg).
The antigen used was caviar extract. As a reference regarding the caviar extract used, the publication by Untersmayr E, Schöll I, Förster-Waldl E, Walter F, Riemer A, Boltz-Nitulescu G, Scheiner O, Jensen-Jarolim E. J Allergy and Immun. 2002; 109 (6): 1034-5 is cited. The antigen contained therein has a molecular weight of 118 kDa.
The obtained results are rendered in FIG. 1. […] Groups A and B were given the antigen in conjunction with a gastric acid reducing agent orally according to the invention, while for comparison purposes group C was immunized according to a standard scheme for IgE induction, and group D was given the antigen orally without gastric acid reducing agent.

Molecule | induction of IgE antibodies against caviar extract | induction of IgG antibodies against caviar extract
CNC(=C[N+](=O)[O-])NCCSCc1ccc(CN(C)C)o1 [Zantac, ranitidine hydrochloride] | lasting induction | lasting induction
aluminum sucrose hydrogen sulfate [Ulcogant] | lasting induction | lasting induction
